The record followed here is patent US9896445B2, “Heterocyclic inhibitors of ERK1 and ERK2 and their use in the treatment of cancer” (Asana Biosciences, LLC, priority 2015, dated 2018).

Assay [1] addresses T1, ERK1 (Homo sapiens, UniProt P27361).
T1 construct: purchased Jubilant Biosys
The assay is described as follows: ERK1 HTRF (biochemical) assay. The conditions noted are these: HTRF. The method, then:
ERK1 and ERK2 HTRF (Biochemical) Assays
These assays employed a homogeneous time resolved fluorescence (HTRF) technique. […] The plate was incubated at room temperature for 60 min with shaking. […] The IC50 values (half maximal inhibitory concentration values) were subsequently determined using a sigmoidal dose-response curve (variable slope) in GraphPad Prism® 5 software.

Assay [2] concerns the target T2, ERK2 (Homo sapiens, UniProt P28482).
T2 construct: purchased Jubilant Biosys
In words: ERK2 HTRF (biochemical) assay. The following applies: HTRF. The procedure, abridged:
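Compounds were tested as half-log dilutions from 0.0005 to 10 uM in Tris pH 7.5/MgCl2 buffer, with a substrate mix of 1 uM biotin-MBP peptide and 24 uM ATP and an enzyme mix of 25 nM ERK2. Reaction ran 60 min at room temperature. Phospho-MBP was detected by HTRF (Eu-anti-phospho-MBP/SA-APC, 665/620 nm), and IC50 was fitted with a variable-slope sigmoidal curve.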

T2 sequence (P28482 whole entry): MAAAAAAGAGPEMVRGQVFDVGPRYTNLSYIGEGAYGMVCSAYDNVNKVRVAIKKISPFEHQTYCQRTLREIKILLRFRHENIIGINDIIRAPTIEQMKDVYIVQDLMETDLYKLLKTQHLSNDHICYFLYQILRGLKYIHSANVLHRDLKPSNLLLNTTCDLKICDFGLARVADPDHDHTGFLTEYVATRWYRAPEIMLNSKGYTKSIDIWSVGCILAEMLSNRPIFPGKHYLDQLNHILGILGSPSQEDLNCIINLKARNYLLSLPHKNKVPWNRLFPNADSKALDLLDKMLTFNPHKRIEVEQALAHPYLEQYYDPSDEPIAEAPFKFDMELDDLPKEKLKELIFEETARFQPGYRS
T1 sequence (P27361 whole entry): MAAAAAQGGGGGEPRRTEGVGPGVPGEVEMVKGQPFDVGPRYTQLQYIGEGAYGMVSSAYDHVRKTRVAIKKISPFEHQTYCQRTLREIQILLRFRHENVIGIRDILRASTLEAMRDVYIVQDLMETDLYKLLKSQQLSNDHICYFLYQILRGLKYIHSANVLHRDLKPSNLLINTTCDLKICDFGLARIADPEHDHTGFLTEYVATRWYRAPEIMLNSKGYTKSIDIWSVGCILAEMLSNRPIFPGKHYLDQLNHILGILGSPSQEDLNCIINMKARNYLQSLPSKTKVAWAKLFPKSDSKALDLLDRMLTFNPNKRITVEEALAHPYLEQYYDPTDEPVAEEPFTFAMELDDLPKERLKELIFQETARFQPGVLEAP

Take `CC[C@H](CO)Nc1ncc(C)c(-n2ccc(C(=O)NC(CO)c3cccc(Cl)c3)c2)n1` (stereo partly drawn) [Compound 167, N-(1-(3-chloro-phenyl)-2-hydroxy-ethyl)-1-(2-(((R)-1-hydroxybutan-2-yl)amino)-5-methylpyrimidin-4-yl)-1H-pyrrole-3-carboxamide]: the results for the IC50 in assay [1] and in assay [2] were below 0.05 µM and at most 0.05 µM, respectively.

On to `CC[C@H](CO)Nc1cc(-n2cnc(C(=O)NC(CO)c3cccc(Cl)c3)c2)c(Cl)cn1` (stereo partly drawn) [Compound 168, 1-(5-chloro-2-(((R)-1-hydroxybutan-2-yl)amino)pyridin-4-yl)-N-(1-(3-chlorophenyl)-2-hydroxyethyl)-1H-imidazole-4-carboxamide], for which the half-maximal inhibitory concentration (IC50) in assay [1] was below 0.05 µM; in assay [2], 0.05 to 0.1 µM.

In the case of `Cc1cnc(Nc2ccc(F)cc2Cl)nc1-n1ccc(C(=O)NC(CN)c2cccc(Cl)c2)c1` (stereo not shown) [Compound 169, N-(2-amino-1-(3-chlorophenyl)ethyl)-1-(2-((2-chloro-4-fluorophenyl)amino)-5-methyl-pyrimidin-4-yl)-1H-pyrrole-3-carboxamide], the IC50 in assay [1] and in assay [2] was 0.05 to 0.1 µM in each case.

For the compound `O=C(N[C@H](CO)c1cccc(Cl)c1)c1cn(-c2ccnc(NC3CCOC3)c2)cn1` (stereo partly drawn) [Compound 170, N-((S)-1-(3-chlorophenyl)-2-hydroxyethyl)-1-(2-((tetrahydrofuran-3-yl)amino)pyridin-4-yl)-1H-imidazole-4-carboxamide], the half-inhibitory concentration (IC50) in assay [1] is below 0.05 µM; in assay [2], at most 0.05 µM.

In the case of `Cc1cnc(Nc2cccnc2)cc1-n1ccc(C(=O)NC(CO)c2ccc(F)c(Cl)c2)c1` (stereo not shown) [Compound 171, N-(1-(3-chloro-4-fluorophenyl)-2-hydroxyethyl)-1-(5-methyl-2-(pyridin-3-ylamino)pyridin-4-yl)-1H-pyrrole-3-carboxamide], the concentration for half-maximal inhibition (IC50) in assay [1] is below 0.05 µM; in assay [2], at most 0.05 µM.

Consider `Cc1cnc(Nc2ccc3c(c2)OCO3)nc1-n1ccc(C(=O)NC(CO)c2ccc(F)cc2)c1` (stereo not shown) [Compound 172, 1-(2-(benzo[d][1,3]dioxol-5-ylamino)-5-methylpyrimidin-4-yl)-N-(1-(4-fluorophenyl)-2-hydroxyethyl)-1H-pyrrole-3-carboxamide], for which the figures for the half-inhibitory concentration (IC50) in assay [1] and in assay [2] were below 0.05 µM and at most 0.05 µM, respectively.

Turning to `Cc1cnc(Nc2ccc3c(c2)CCCO3)nc1-n1ccc(C(=O)NC(CO)c2ccccc2)c1` (stereo not shown) [Compound 173, 1-(2-(chroman-6-ylamino)-5-methyl-pyrimidin-4-yl)-N-(2-hydroxy-1-phenylethyl)-1H-pyrrole-3-carboxamide], the figures for the IC50 in assay [1] and in assay [2] were below 0.05 µM and at most 0.05 µM, respectively.

In the case of `Cc1cnc(NC2CCNC2)nc1-n1ccc(C(=O)N[C@H](CO)c2cccc(Cl)c2)c1` (stereo partly drawn) [Compound 174, N-((S)-1-(3-chlorophenyl)-2-hydroxyethyl)-1-(5-methyl-2-(pyrrolidin-3-ylamino)pyrimidin-4-yl)-1H-pyrrole-3-carboxamide], the half-maximal inhibitory concentration (IC50) is below 0.05 µM in assay [1] and at most 0.05 µM in assay [2].

Take `Cc1cnc(Nc2ccc(F)c(N3CCOCC3)c2)nc1-n1ccc(C(=O)NC(CO)c2cccc(Cl)c2)c1` (stereo not shown) [Compound 175, N-(1-(3-chloro-phenyl)-2-hydroxy-ethyl)-1-(2-((4-fluoro-3-morpholinophenyl)amino)-5-methyl-pyrimidin-4-yl)-1H-pyrrole-3-carboxamide]: the IC50 in assay [1] was below 0.05 µM; in assay [2], at most 0.05 µM.

Consider `O=C(NC(CO)c1cccc(Cl)c1)c1ccn(-c2ccnc(Nc3ccc4c(c3)OC(F)(F)O4)n2)c1` (stereo not shown) [Compound 176, N-(1-(3-chloro-phenyl)-2-hydroxyethyl)-1-(2-((2,2-difluoro-benzo[d][1,3]dioxol-5-yl)amino)-pyrimidin-4-yl)-1H-pyrrole-3-carboxamide], for which the 50% inhibitory concentration (IC50) in assay [1] was below 0.05 µM; in assay [2], at most 0.05 µM.

As to `Cc1cnc(Nc2ccc(F)cc2)nc1-n1cnc(C(=O)NC(CN)c2cccc(Cl)c2)c1` (stereo not shown) [Compound 177, N-(2-amino-1-(3-chlorophenyl)ethyl)-1-(2-((4-fluoro-phenyl)amino)-5-methylpyrimidin-4-yl)-1H-imidazole-4-carboxamide], the IC50 in assay [1] is below 0.05 µM; in assay [2] it was at most 0.05 µM.
